Measurements published in patent publication US20200360520A1, “USE OF RIFAMYCIN-QUINOLIZIDONE COUPLING MOLECULE” (priority 2019, published 2020).
Values after ≈ are worked out from the molar mass of the structure shown. Read-outs that look alike come from different tables or passages of the source.

Experiments:
Type in all cases: cell-based
Mycobacterium abscessus [1] = assay: MBC test (plating on agar, CFU count); conditions: for Minimum Bactericidal Concentration (MBC): MH Culture Medium; for MBC: Mycobacteroides abscessus, 7H9 Culture Medium, read-out: Minimum Bactericidal Concentration (MBC)
Mycobacterium kansasii [2] = assay: MIC by micro broth dilution method (resazurin microtiter assay); conditions: for MIC: Mycobacterium kansasii, read-out: Minimum Inhibitory Concentration (MIC)
Mycobacterium avium [3] = assay: MBC test (plating on agar, CFU count); conditions: for MBC: Mycobacterium avium, read-out: Minimum Bactericidal Concentration (MBC)
Mycobacterium kansasii [4] = assay: MBC test (plating on agar, CFU count); conditions: for MBC: Mycobacterium kansasii, read-out: Minimum Bactericidal Concentration (MBC)
Mycobacterium abscessus [5] = assay: MIC by micro broth dilution method (resazurin microtiter assay); conditions: Mycobacteroides abscessus, read-out: Minimum Inhibitory Concentration (MIC)
Mycobacterium fortuitum = assay: as above; conditions: Mycolicibacterium fortuitum, MH Culture Medium, read-out: Minimum Inhibitory Concentration (MIC)
[6] = test system: Mycobacterium massiliense; assay: as above; conditions: Mycobacteroides abscessus, MH Culture Medium, read-out: Minimum Inhibitory Concentration (MIC)
[7] = test system: Mycobacterium intracellulare; assay: as above; conditions: for MIC: Mycobacterium intracellulare, MH Culture Medium, read-out: Minimum Inhibitory Concentration (MIC)
Mycobacterium avium [8] = assay: as above; conditions: read-out: Minimum Inhibitory Concentration (MIC)
Mycodacterium chelonei = assay: as above; conditions: MH Culture Medium; Chelonei (standard strain); read-out: Minimum Inhibitory Concentration (MIC)
[9] = MH Culture Medium, Kansasii (standard strain)
[10] = MH Culture Medium, clinically isolated strain Kansasii (S9)
[11] = MH Culture Medium, clinically isolated strain Kansasii (S199)
[12] = MH Culture Medium, clinically isolated strain Kansasii (S520)
[13] = MH Culture Medium, clinically isolated strain Kansasii (S609)
[14] = 7H9 Culture Medium, Mycobacterium avium Smooth
[15] = MH Culture Medium, Mycobacterium avium Smooth
[16] = clinically isolated strain Fortuitum (S103)
[17] = clinically isolated strain Fortuitum (S111)
[18] = clinically isolated strain Massiliense (D10)
[19] = clinically isolated strain Massiliense (D14)
[20] = clinically isolated strain Massiliense (D18)
[21] = Intracellulare (standard strain)
[22] = clinically isolated strain Intracellulare (S90)
[23] = clinically isolated strain Intracellulare (S261)
[24] = clinically isolated strain Intracellulare (S269)
[25] = clinically isolated strain Intracellulare (S290)
[26] = clinically isolated strain Intracellulare (S291)
[27] = clinically isolated strain Intracellulare (S298)
[28] = clinically isolated strain Intracellulare (S541)
[29] = clinically isolated strain Intracellulare (S623)
[30] = clinically isolated strain Intracellulare (ZPS)
[31] = clinically isolated strain intracellulare (S442)
[32] = 7H9 Broth, Mycobacterium avium Smooth
[33] = MH Broth, Mycobacterium avium Smooth
[34] = MH Culture Medium, Avium (standard strain)
[35] = MH Culture Medium, clinically isolated strain Avium (S31)
[36] = MH Culture Medium, clinically isolated strain Avium (S123)
[37] = MH Culture Medium, clinically isolated strain Avium (S559)
[38] = MH Culture Medium, clinically isolated strain Avium (S568)
[39] = MH Culture Medium, clinically isolated strain Avium (S577)
[40] = MH Culture Medium, clinically isolated strain Avium (S597)
[41] = MH Culture Medium, clinically isolated strain Avium (S602)

CO[C@H]1/C=C/O[C@@]2(C)Oc3c(C)c(O)c4c(O)c(c(/C=N/N5CCC(N(C)C6([C@@H]7CCN(c8c(F)cn9c(=O)c(C(=O)O)cc(C%10CC%10)c9c8C)C7)CC6)CC5)c(O)c4c3C2=O)NC(=O)/C(C)=C\C=C\[C@H](C)[C@H](O)[C@@H](C)[C@@H](O)[C@@H](C)[C@H](CC(C)=O)[C@@H]1C [Compound I]
Minimum Bactericidal Concentration (MBC) (Mycobacterium abscessus [1]): 1 µg/mL
MBC (Mycobacterium abscessus [1]): 1 µg/mL (≈ 0.831 µM)
MIC (Mycobacterium kansasii [2]; 7H9 Broth): 2 µg/mL (≈ 1.66 µM)
MIC (Mycobacterium kansasii [2]; MH Broth): 2 µg/mL (≈ 1.66 µM)
MIC (Mycobacterium kansasii [2]; [9]): 0.0625 µg/mL (≈ 0.0519 µM)
MIC (Mycobacterium kansasii [2]; [10]): 0.25 µg/mL (≈ 0.208 µM)
MIC (Mycobacterium kansasii [2]; [11]): 0.0625 µg/mL (≈ 0.0519 µM)
MIC (Mycobacterium kansasii [2]; [12]): 0.0625 µg/mL (≈ 0.0519 µM)
MIC (Mycobacterium kansasii [2]; [13]): 0.0625 µg/mL (≈ 0.0519 µM)
activity compared with controls, in words (Mycobacterium kansasii [2]; against mycobacterium kansasii): much higher than that of rifampicin, ciprofloxacin and metronidazole
MBC (Mycobacterium avium [3]; 7H9 Culture Medium, Mycobacterium avium Rough): > 64 µg/mL
MBC (Mycobacterium avium [3]; [14]): 16 µg/mL (≈ 13.3 µM)
MBC (Mycobacterium avium [3]; MH Culture Medium, Mycobacterium avium Rough): > 64 µg/mL
MBC (Mycobacterium avium [3]; [15]): 16 µg/mL (≈ 13.3 µM)
bactericidal activity (MBC), in words (Mycobacterium avium [3]; against smooth type strain of Mycobacterium avium): had an activity
MBC (Mycobacterium kansasii [4]; 7H9 Culture Medium): 2 µg/mL (≈ 1.66 µM)
MBC (Mycobacterium kansasii [4]; MH Culture Medium): 2 µg/mL (≈ 1.66 µM)
bactericidal activity (MBC) compared with controls, in words (Mycobacterium kansasii [4]; against mycobacterium kansasii): higher than or much higher than that of all other tested antibiotic drugs
MIC (Mycobacterium abscessus [5]; 7H9 Broth): 1 µg/mL (≈ 0.831 µM)
MIC (Mycobacterium abscessus [5]; MH Broth): 1 µg/mL (≈ 0.831 µM)
MIC (Mycobacterium fortuitum; Fortuitum (standard strain)): 64 µg/mL (≈ 53.2 µM)
MIC (Mycobacterium fortuitum; [16]): > 64 µg/mL
MIC (Mycobacterium fortuitum; [17]): > 64 µg/mL
MIC [6, 18]: > 64 µg/mL
MIC [6, 19]: > 64 µg/mL
MIC [6, 20]: > 64 µg/mL
MIC [7, 21]: 0.5 µg/mL (≈ 0.415 µM)
MIC [7, 22]: 64 µg/mL (≈ 53.2 µM)
MIC [7, 23]: 64 µg/mL (≈ 53.2 µM)
MIC [7, 24]: > 64 µg/mL
MIC [7, 25]: 64 µg/mL (≈ 53.2 µM)
MIC [7, 26]: 64 µg/mL (≈ 53.2 µM)
MIC [7, 27]: 64 µg/mL (≈ 53.2 µM)
MIC [7, 28]: 32 µg/mL (≈ 26.6 µM)
MIC [7, 29]: 64 µg/mL (≈ 53.2 µM)
MIC [7, 30]: 32 µg/mL (≈ 26.6 µM)
MIC [7, 31]: 32 µg/mL (≈ 26.6 µM)
activity, in words ([7]; against Mycobacterium intracellulare): weak
MIC (Mycobacterium avium [8]; 7H9 Broth, Mycobacterium avium Rough): > 64 µg/mL
MIC (Mycobacterium avium [8]; [32]): 4 µg/mL (≈ 3.32 µM)
MIC (Mycobacterium avium [8]; MH Broth, Mycobacterium avium Rough): > 64 µg/mL
MIC (Mycobacterium avium [8]; [33]): 4 µg/mL (≈ 3.32 µM)
MIC (Mycobacterium avium [8]; [34]): 1 µg/mL (≈ 0.831 µM)
MIC (Mycobacterium avium [8]; [35]): 0.25 µg/mL (≈ 0.208 µM)
MIC (Mycobacterium avium [8]; [36]): 8 µg/mL (≈ 6.65 µM)
MIC (Mycobacterium avium [8]; [37]): 0.25 µg/mL (≈ 0.208 µM)
MIC (Mycobacterium avium [8]; [38]): 32 µg/mL (≈ 26.6 µM)
MIC (Mycobacterium avium [8]; [39]): 0.125 µg/mL (≈ 0.104 µM)
MIC (Mycobacterium avium [8]; [40]): > 64 µg/mL
MIC (Mycobacterium avium [8]; [41]): 8 µg/mL (≈ 6.65 µM)
MIC (Mycodacterium chelonei): 64 µg/mL (≈ 53.2 µM)

Cc1ncc([N+](=O)[O-])n1CCO [Metronidazole, metronidazole]
Minimum Bactericidal Concentration (MBC) (Mycobacterium abscessus [1]): >64 µg/mL
MBC (Mycobacterium abscessus [1]): > 64 µg/mL
MIC (Mycobacterium kansasii [2]; 7H9 Broth): > 64 µg/mL
MIC (Mycobacterium kansasii [2]; MH Broth): > 64 µg/mL
MIC (Mycobacterium kansasii [2]; [9]): 8 µg/mL (≈ 46.7 µM)
MIC (Mycobacterium kansasii [2]; [10]): 8 µg/mL (≈ 46.7 µM)
MIC (Mycobacterium kansasii [2]; [11]): 8 µg/mL (≈ 46.7 µM)
MIC (Mycobacterium kansasii [2]; [12]): 8 µg/mL (≈ 46.7 µM)
MIC (Mycobacterium kansasii [2]; [13]): 8 µg/mL (≈ 46.7 µM)
MBC (Mycobacterium avium [3]; [14]): > 64 µg/mL
MBC (Mycobacterium avium [3]; [15]): > 64 µg/mL
MBC (Mycobacterium kansasii [4]; 7H9 Culture Medium): > 64 µg/mL
MBC (Mycobacterium kansasii [4]; MH Culture Medium): > 64 µg/mL
MIC (Mycobacterium abscessus [5]; 7H9 Broth): > 64 µg/mL
MIC (Mycobacterium abscessus [5]; MH Broth): > 64 µg/mL
MIC (Mycobacterium fortuitum; Fortuitum (standard strain)): 16 µg/mL (≈ 93.5 µM)
MIC (Mycobacterium fortuitum; [16]): 8 µg/mL (≈ 46.7 µM)
MIC (Mycobacterium fortuitum; [17]): 16 µg/mL (≈ 93.5 µM)
MIC [6, 18]: 16 µg/mL (≈ 93.5 µM)
MIC [6, 19]: 16 µg/mL (≈ 93.5 µM)
MIC [6, 20]: 8 µg/mL (≈ 46.7 µM)
MIC [7, 21]: 8 µg/mL (≈ 46.7 µM)
MIC [7, 22]: 16 µg/mL (≈ 93.5 µM)
MIC [7, 23]: 16 µg/mL (≈ 93.5 µM)
MIC [7, 24]: 16 µg/mL (≈ 93.5 µM)
MIC [7, 25]: 8 µg/mL (≈ 46.7 µM)
MIC [7, 26]: 8 µg/mL (≈ 46.7 µM)
MIC [7, 27]: 16 µg/mL (≈ 93.5 µM)
MIC [7, 28]: 16 µg/mL (≈ 93.5 µM)
MIC [7, 29]: 8 µg/mL (≈ 46.7 µM)
MIC [7, 30]: 8 µg/mL (≈ 46.7 µM)
MIC [7, 31]: 8 µg/mL (≈ 46.7 µM)
MIC (Mycobacterium avium [8]; [32]): > 64 µg/mL
MIC (Mycobacterium avium [8]; [33]): > 64 µg/mL
MIC (Mycobacterium avium [8]; [34]): 8 µg/mL (≈ 46.7 µM)
MIC (Mycobacterium avium [8]; [35]): 16 µg/mL (≈ 93.5 µM)
MIC (Mycobacterium avium [8]; [36]): 8 µg/mL (≈ 46.7 µM)
MIC (Mycobacterium avium [8]; [37]): 8 µg/mL (≈ 46.7 µM)
MIC (Mycobacterium avium [8]; [38]): 8 µg/mL (≈ 46.7 µM)
MIC (Mycobacterium avium [8]; [39]): 8 µg/mL (≈ 46.7 µM)
MIC (Mycobacterium avium [8]; [40]): 8 µg/mL (≈ 46.7 µM)
MIC (Mycobacterium avium [8]; [41]): 32 µg/mL (≈ 187 µM)
MIC (Mycodacterium chelonei): 16 µg/mL (≈ 93.5 µM)
